Experimental data: patent US10342804B2, “Steroid compound for use in the treatment of hepatic encephalopathy” (Umecrine Cognition AB, priority 2014, dated 2019)

Legend:
PCS rats [1] = assay: Beam walking test, PCS rats (Example 8); assay type: in vivo, rat
Method: (§1) Male Wistar rats (220-240 g) were anesthetized with isoflurane, and an end-to side porta-caval anastomosis was performed as described by Lee and Fisher (Surgery, 1961, 50, 668-672).
(§2) Rats that were subjected to the porta-caval anastomosis procedure are herein referred to as “PCS rats”.
3α-ethynyl-3β-hydroxyandrostan-17-one oxime in sesame oil was administered by subcutaneous injections in the back of the rats, once daily. Two different sets of experiments were performed in hyperammonemic rats. In the first set four groups of rats were used: 1) control rats injected with vehicle; 2) hyperammonemic rats injected with vehicle; 3) control rats injected with 20 mg/Kg of 3α-ethynyl-3β-hydroxyandrostan-17-one oxime and 4) hyperammonemic rats injected with 20 mg/Kg of 3α-ethynyl-3β-hydroxyandrostan-17-one oxime. […]
Motor coordination was tested as described by Gonzalez-Usano et al (ACS Chemical Neuroscience, 2014, 19, 5(2), 100-105) using a wooden beam (20 mm diameter). Rats were made to traverse a one-meter-long wooden beam located approximately one meter above the ground, and the number of foot faults (slips) was recorded by two observers. The rats were trained for the test by being made to traverse the beam up to five times before measurements were recorded. […]

PCS rats [2] = assay: Radial maze test, PCS rats (Example 10); assay type: in vivo, rat
Method: as §1, §2
3α-ethynyl-3β-hydroxyandrostan-17-one oxime in sesame oil was administered by subcutaneous injections in the back of the rats, once daily. Two different sets of experiments were performed in hyperammonemic rats. In the first set four groups of rats were used: 1) control rats injected with vehicle; 2) hyperammonemic rats injected with vehicle; 3) control rats injected with 20 mg/Kg of 3α-ethynyl-3β-hydroxyandrostan-17-one oxime and 4) hyperammonemic rats injected with 20 mg/Kg of 3α-ethynyl-3β-hydroxyandrostan-17-one oxime.
For the experiments using PCS rats, the following groups of rats were used: 1) Sham rats injected with vehicle; 2) PCS rats injected with vehicle; 3-4) PCS rats injected with 0.7 or 2.5 mg/Kg of 3α-ethynyl-3β-hydroxyandrostan-17-one oxime. […]
The apparatus was composed of a central area that gave access to eight equally-sized arms. […] The number of working memory errors (visits to arms already visited in the same trial) were recorded and expressed as working errors.

[3] = target: T1, human α1β2γ2L GABAA receptors (Homo sapiens, UniProt P14867+P47870); assay: Whole-cell voltage-clamp electrophysiology, HEK-293 cells expressing α1β2γ2L GABAA receptors; assay type: cell-based; conditions: for GAMSA effect: α1β2γ2L, 1 μM GAMSA, 30 μM GABA, AUC
T1 construct: expressed in transfected cells; host or cells: HEK-293, permanently transfected
Method: For electrophysiology measurements the Dynaflow® system with the Resolve chip was used (Cellectricon, Göteborg, Sweden). HEK-293 cells were permanently transfected with vectors including the human CMV promoter for constitutive expression of the human α5, β3, and γ2L GABAA receptor subunits (α5β3γ2L) or the human α1, β2, and γ2L GABAA receptor subunits (α1β2γ2L). The cell lines used were selected for good reactivity to GABA and to THDOC. Before measurements cells were incubated for 15 min at 37° C. in 95% air+5% CO2 in extracellular solution (EC) containing the following: 137 mM NaCl, 5.0 mM KCl, 1.0 mM CaCl2, 1.2 mM MgCl2, 10 mM HEPES, and 10 mM glucose, 0.1% DMSO pH 7.4. Thereafter, detached cells were added to the EC solution in the Dynaflow chip bath.
Whole-cell voltage-clamp recordings were made at room temperature (21-23° C., −17 mV with compensation for liquid junction potential as in Haage et al., 2002; Neher, 1992). Command pulses were generate and data collected by PClamp 9.0 software, DigiData 1322A converter, and AxonPatch 200B (Axon Instruments, Foster City, Calif.). Patch electrodes (2-6 MΩ) were filled with intracellular solution (IC) including: 140 mM Cs-gluconate, 3.0 mM NaCl, 1.2 mM MgCl2, 10 mM HEPES, 1.0 mM EGTA, 2 mM Mg-ATP, 0.1% DMSO, pH 7.2.
THDOC and 3α-ethynyl-3β-hydroxyandrostan-17-one oxime were dissolved in dimethyl sulfoxide (DMSO) and thereafter diluted with EC solution to include 0.1% DMSO.
Different protocols were used for different electrophysiology measurements. As α1β2γ2L-GABAA receptors in vivo are present within the synapse a condition resembling that situation, a short application (40 ms) of a high GABA concentration (30 μM), was used. Contrary, α5β3γ2L-GABAA receptors are present extrasynaptically, thus the conditions used were long exposures (6 s) to a low GABA concentration (0.3 μM). The EC75 concentration of THDOC was used, i.e. 100 nM with studies of α1β2γ2L and 200 nM when α5β3γ2L expressing cells were evaluated. With both cell types a pre-exposure with THDOC or THDOC plus 3α-ethynyl-3β-hydroxyandrostan-17-one oxime was used before application of GABA.
Steroid effects in presence of GABA were normalized to controls in order to avoid the effects of inter- and intracellular variation in the measured parameters, each cell was used as its own control and the area under the curve (AUC) was analyzed.

T1 sequence (P14867 28-456): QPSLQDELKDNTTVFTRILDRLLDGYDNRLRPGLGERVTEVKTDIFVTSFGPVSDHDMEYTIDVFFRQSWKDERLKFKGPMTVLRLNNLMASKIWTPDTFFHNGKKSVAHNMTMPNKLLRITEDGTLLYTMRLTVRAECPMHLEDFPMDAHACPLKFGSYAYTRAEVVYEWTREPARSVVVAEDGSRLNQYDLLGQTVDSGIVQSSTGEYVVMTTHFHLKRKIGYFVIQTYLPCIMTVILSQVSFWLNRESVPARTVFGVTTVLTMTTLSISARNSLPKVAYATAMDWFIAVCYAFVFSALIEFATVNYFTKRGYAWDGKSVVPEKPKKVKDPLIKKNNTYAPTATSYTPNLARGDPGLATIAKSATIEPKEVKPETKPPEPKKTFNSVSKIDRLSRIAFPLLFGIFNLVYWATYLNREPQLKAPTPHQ
T1 sequence (P47870 25-512 limits assumed): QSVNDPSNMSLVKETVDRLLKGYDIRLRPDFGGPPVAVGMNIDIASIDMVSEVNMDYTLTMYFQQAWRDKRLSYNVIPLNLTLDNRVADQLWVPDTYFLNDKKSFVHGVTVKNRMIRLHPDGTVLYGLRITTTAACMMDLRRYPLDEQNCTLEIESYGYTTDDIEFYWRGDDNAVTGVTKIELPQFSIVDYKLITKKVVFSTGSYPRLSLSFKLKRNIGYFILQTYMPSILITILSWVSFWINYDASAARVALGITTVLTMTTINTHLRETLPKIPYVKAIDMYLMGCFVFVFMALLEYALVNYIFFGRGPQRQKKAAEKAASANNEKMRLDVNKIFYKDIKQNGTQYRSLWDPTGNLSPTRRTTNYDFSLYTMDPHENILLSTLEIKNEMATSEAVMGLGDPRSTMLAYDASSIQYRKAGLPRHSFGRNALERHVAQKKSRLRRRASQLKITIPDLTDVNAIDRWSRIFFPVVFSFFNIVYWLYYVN
T1 sequence (P18507 40-475 partner): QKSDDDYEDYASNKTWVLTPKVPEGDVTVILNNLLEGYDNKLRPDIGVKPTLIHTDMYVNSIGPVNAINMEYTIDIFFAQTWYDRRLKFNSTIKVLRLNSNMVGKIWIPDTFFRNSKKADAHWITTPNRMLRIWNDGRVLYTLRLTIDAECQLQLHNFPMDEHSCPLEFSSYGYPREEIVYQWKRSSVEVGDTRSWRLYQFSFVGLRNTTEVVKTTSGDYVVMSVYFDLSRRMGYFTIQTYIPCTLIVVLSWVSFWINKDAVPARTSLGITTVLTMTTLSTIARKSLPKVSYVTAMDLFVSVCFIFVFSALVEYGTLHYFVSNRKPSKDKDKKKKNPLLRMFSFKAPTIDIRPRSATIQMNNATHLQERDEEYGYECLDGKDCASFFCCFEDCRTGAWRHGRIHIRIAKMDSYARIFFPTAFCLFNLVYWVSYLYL

## C#C[C@]1(O)CC[C@@]2(C)C(CC[C@@H]3[C@@H]2CC[C@]2(C)/C(=N\O)CC[C@@H]32)C1 (stereo partly drawn) [3α-ethynyl-3β-hydroxyandrostan-17-one oxime]
PCS rats [1]; 0.7 mg/kg s.c. once daily
  Number of slips, beam walking test: 0.75±0.10 slips
PCS rats [1]; 2.5 mg/Kg s.c. once daily
  Number of slips, beam walking test: 0.8±0.1 slips
PCS rats [2]; 0.7 mg/Kg
  Number of working errors in days 1-2, radial maze: 23±2 errors
PCS rats [2]; 2.5 mg/Kg
  Number of working errors in days 1-2, radial maze: 11±1 errors
[3]; HEK293, read-out: Inhibition of the THDOC enhancement of GABA
  inhibition at 1 µM: 29 ± 4.7%
[3]; 100 nM THDOC
  GAMSA effect: −29 ± 4.7%
[3]; no THDOC (GABA sole activator)
  GAMSA effect: −3.1±1.7%
[3]; no THDOC (GABA sole activator), listed as GAMSA
  GAMSA effect: −3.1 ± 1.7%
